Laboratory results taken from patent US20110039721A1, “METHOD FOR PREDICTION ABOUT CARCINOGENICITY OF SUBSTANCE IN RODENT” (Chemicals Evaluation and Research Institute, priority 2007, published 2011).

What was measured:
liver = details: in vivo; cited from earlier work
[1] = system: mRNA expressed from the genes (A) to (D) in rat liver; assay: Behavior of genes (mRNA expression level, oligo-DNA microarray) in rat liver after 28-day oral administration; type: in vivo; details: rat, in vivo
In short: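 Rat liver RNA after 28 days of daily gavage dosing (male F344, 5 weeks old, four per group). A change reaching 1.5-fold, or 1/1.5, against solvent control scores as significant; opposite direction versus another carcinogen scores as not significant.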

rodent = details: in vivo; cited from earlier work

Row | Compound | Liver carcinogenicity (liver) | Behavior of gene caused by administration of chemical substance, Gene No. 154 [1] | Behavior of gene caused by administration of chemical substance, Gene No. 533 [1] | Behavior of gene caused by administration of chemical substance, Gene No. 725 [1] | Behavior of gene caused by administration of chemical substance, Gene No. 813 [1] | Behavior of gene caused by administration of chemical substance, Gene No. 893 [1] | Behavior of gene caused by administration of chemical substance, Gene No. 1119 [1] | Behavior of gene caused by administration of chemical substance, Gene No. 1131 [1] | Behavior of gene caused by administration of chemical substance, Gene No. 1163 [1] | Behavior of gene caused by administration of chemical substance, Gene No. 1334 [1] | Behavior of gene caused by administration of chemical substance, Gene No. 1494 [1] | Behavior of gene caused by administration of chemical substance, Gene No. 1562 [1] | Behavior of gene caused by administration of chemical substance, Gene No. 1741 [1] | Behavior of gene caused by administration of chemical substance, Gene No. 1993 [1] | Behavior of gene caused by administration of chemical substance, Gene No. 2026 [1] | Behavior of gene caused by administration of chemical substance, Gene No. 2045 [1] | Behavior of gene caused by administration of chemical substance, Gene No. 2203 [1] | Behavior of gene caused by administration of chemical substance, Gene No. 2494 [1] | Behavior of gene caused by administration of chemical substance, Gene No. 2546 [1] | Behavior of gene caused by administration of chemical substance, Gene No. 3776 [1] | also measured
1 | OCCCl [TS032, 2-Chloroethanol] | Cr− | − | − | − | − | − | − | − | − | − | − | − | − | − | − | − | − | − | − | − | Behavior of gene caused by administration of chemical substance, Gene No. 3929 [1]: −; Behavior of gene caused by administration of chemical substance, Gene No. 4095 [1]: −; Behavior of gene caused by administration of chemical substance, Gene No. 4218 [1]: −; Behavior of gene caused by administration of chemical substance, Gene No. 4846 [1]: −; Behavior of gene caused by administration of chemical substance, Gene No. 4973 [1]: −; Behavior of gene caused by administration of chemical substance, Gene No. 5600 [1]: −; Behavior of gene caused by administration of chemical substance, Gene No. 5634 [1]: −; Behavior of gene caused by administration of chemical substance, Gene No. 5726 [1]: −; Behavior of gene caused by administration of chemical substance, Gene No. 5878 [1]: −; Behavior of gene caused by administration of chemical substance, Gene No. 6026 [1]: −; Behavior of gene caused by administration of chemical substance, Gene No. 6182 [1]: −; Behavior of gene caused by administration of chemical substance, Gene No. 6303 [1]: −; Behavior of gene caused by administration of chemical substance, Gene No. 6620 [1]: −; Behavior of gene caused by administration of chemical substance, Gene No. 6742 [1]: −; Carcinogenicity (rodent): C−
2 | Cl[C@H]1[C@H](Cl)[C@H](Cl)[C@@H](Cl)[C@H](Cl)[C@H]1Cl [TS021, α-Hexachlorocyclohexane] | Cr+ | − | + | − | + | − | − | − | − | − | + | − | + | − | − | + | + | − | − | − | Behavior of gene caused by administration of chemical substance, Gene No. 3929 [1]: −; Behavior of gene caused by administration of chemical substance, Gene No. 4095 [1]: +; Behavior of gene caused by administration of chemical substance, Gene No. 4218 [1]: −; Behavior of gene caused by administration of chemical substance, Gene No. 4846 [1]: −; Behavior of gene caused by administration of chemical substance, Gene No. 4973 [1]: +; Behavior of gene caused by administration of chemical substance, Gene No. 5600 [1]: −; Behavior of gene caused by administration of chemical substance, Gene No. 5634 [1]: +; Behavior of gene caused by administration of chemical substance, Gene No. 5726 [1]: −; Behavior of gene caused by administration of chemical substance, Gene No. 5878 [1]: −; Behavior of gene caused by administration of chemical substance, Gene No. 6026 [1]: −; Behavior of gene caused by administration of chemical substance, Gene No. 6182 [1]: +; Behavior of gene caused by administration of chemical substance, Gene No. 6303 [1]: +; Behavior of gene caused by administration of chemical substance, Gene No. 6620 [1]: −; Behavior of gene caused by administration of chemical substance, Gene No. 6742 [1]: +; Carcinogenicity (rodent): C+
3 | O=C1N=C([O-])NC1(c1ccccc1)c1ccccc1.[Na+] [TS069, Phenytoin Na] | Cr− | + | − | + | − | − | − | − | − | − | + | − | + | − | − | + | + | − | − | − | Behavior of gene caused by administration of chemical substance, Gene No. 3929 [1]: +; Behavior of gene caused by administration of chemical substance, Gene No. 4095 [1]: +; Behavior of gene caused by administration of chemical substance, Gene No. 4218 [1]: −; Behavior of gene caused by administration of chemical substance, Gene No. 4846 [1]: −; Behavior of gene caused by administration of chemical substance, Gene No. 4973 [1]: +; Behavior of gene caused by administration of chemical substance, Gene No. 5600 [1]: −; Behavior of gene caused by administration of chemical substance, Gene No. 5634 [1]: +; Behavior of gene caused by administration of chemical substance, Gene No. 5726 [1]: −; Behavior of gene caused by administration of chemical substance, Gene No. 5878 [1]: −; Behavior of gene caused by administration of chemical substance, Gene No. 6026 [1]: −; Behavior of gene caused by administration of chemical substance, Gene No. 6182 [1]: +; Behavior of gene caused by administration of chemical substance, Gene No. 6303 [1]: −; Behavior of gene caused by administration of chemical substance, Gene No. 6620 [1]: −; Behavior of gene caused by administration of chemical substance, Gene No. 6742 [1]: −; Carcinogenicity (rodent): C+
